Measured values taken from patent publication US8227203B2, “Method for testing or screening protein synthesis inhibitors” (The Trustees of the University of Pennsylvania, priority 2007, dated 2012).

Experiments:
HeLa PV cells = test: SMN sub-cellular localization by indirect immunofluorescence (anti-SMN 2B1); assay type: cell-based; settings: for redistribution of SMN from the cytoplasm to the nucleus (nuclear accumulation of SMN): HeLa cells, short treatment (2-6 hours), immunofluorescence; for nuclear translocation of SMN at longer times: longer times (>24 hr), FIG. 5a; for completeness of SMN nuclear accumulation compared with CHX: ER stress inducers, FIG. 6B
Method: (§1) HeLa PV were cultured in Dulbecco's modified Eagle's medium (Invitrogen) supplemented with 10% fetal bovine serum (Invitrogen). For screening, cells were seeded onto 384-well plates or, for specific experiments, on glass coverslips the day before treatment. Compounds were added directly into the culture medium to the indicated concentration and the cells were then maintained at 37° C. in a 5% CO2 humidified atmosphere for the duration of the treatment. Dispensing of compounds and other automatic liquid handling steps were performed with a Beckman FX multi-channel system equipped with Hudson Crane robotic systems.
(§2) The following mouse monoclonal antibodies were used for indirect immunofluorescence: 2B1 (anti-SMN), 2E17 (anti-Gemin2), 12H12 (anti-Gemin3), 10G11 (anti-Gemin5), 6E2 (anti-Gemin7), 10E10 (anti-PABP), 6BG10 (anti-FXR1), Y12 (anti-Sm) and 9H10 (anti-hnRNP A1). An affinity-purified rabbit polyclonal antibody was used to detect Gemin6.
(§3) Indirect immunofluorescence on HeLa PV cells was performed as follows: HeLa cells, plated on glass coverslips, were briefly washed with PBS, fixed in 2% formaldehyde/PBS for 20 minutes at room temperature, permeabilized in 0.5% Triton X-100/PBS for 5 min at room temperature. Cells were blocked in 3% bovine serum albumin for 1 hour at room temperature. Double-label immunofluorescence experiments were performed by separate sequential incubations of each primary antibody, diluted in PBS containing 3% bovine serum albumin, followed by the specific secondary coupled to fluorescein isothiocyanate or TXRD. All incubations were at room temperature for 1 hour. Indirect epifluorescence microscopy was performed with a Nikon Eclipse E800 microscope. Digital images were collected with a Cook Sensicam high performance camera and processed with the IP laboratory software. Processing of samples for immunofluorescence microscopy on cells cultured in 384-well plates was automated and performed with the aid of microplate washers (ELX405, Bio-Tek) in a similar manner to that previously used for individual samples on glass slides. The cells were also stained with DAPI to allow definition of the nucleus in each cell. Digital images were acquired with an automated microscopy and analysis system (IN Cell Analyzer 1000, GE Healthcare). Images were analyzed using automated algorithms with parameters set to calculate mean pixel intensity in each nucleus (defined by DAPI staining and acquired in a separate channel), cytoplasm, and total cell, as well as the relevant calculated ratios of these values.
Based on the results obtained in Example 1, a library of ˜5,000 biologically active small molecules was screened on HeLa cells in 384-well plates. Each well was incubated with a different compound (at 10 μM) and the cells were processed for indirect immunofluorescence. Digital images were collected from six fields in each well and analyzed using imaging algorithms for multiple parameters including relative nuclear and cytoplasmic intensities, and number, size and signal intensity of Gems. DAPI-stained images were collected in a separate channel to define the boundary of each nucleus. Images of individual fields in wells were flagged by the software as showing a significant change in SMN sub-cellular localization. These individual wells were examined directly, and active compounds were re-tested for verification (FIG. 2).

HeLa cells [1] = test: Sub-cellular localization of Gemins by immunostaining; assay type: cell-based
Method: as §1, with “systems. […]” for “systems.”
Indirect immunofluorescence on HeLa PV cells was performed as follows: HeLa cells, plated on glass coverslips, were briefly washed with PBS, fixed in 2% formaldehyde/PBS for 20 minutes at room temperature, permeabilized in 0.5% Triton X-100/PBS for 5 min at room temperature. […] Images were analyzed using automated algorithms with parameters set to calculate mean pixel intensity in each nucleus (defined by DAPI staining and acquired in a separate channel), cytoplasm, and total cell, as well as the relevant calculated ratios of these values. […]

HeLa cells [2] = test: Localization of other nuclear and cytoplasmic proteins (hnRNP A1, PABP, FXR1, snRNPs) by immunostaining; assay type: cell-based; settings: 6 hrs of 10 μM CHX (FIG. 3c)
Method: as §2
Indirect immunofluorescence on HeLa PV cells was performed as follows: HeLa cells, plated on glass coverslips, were briefly washed with PBS, fixed in 2% formaldehyde/PBS for 20 minutes at room temperature, permeabilized in 0.5% Triton X-100/PBS for 5 min at room temperature. Cells were blocked in 3% bovine serum albumin for 1 hour at room temperature. Double-label immunofluorescence experiments were performed by separate sequential incubations of each primary antibody, diluted in PBS containing 3% bovine serum albumin, followed by the specific secondary coupled to fluorescein isothiocyanate or TXRD. All incubations were at room temperature for 1 hour. Indirect epifluorescence microscopy was performed with a Nikon Eclipse E800 microscope. […] Images were analyzed using automated algorithms with parameters set to calculate mean pixel intensity in each nucleus (defined by DAPI staining and acquired in a separate channel), cytoplasm, and total cell, as well as the relevant calculated ratios of these values.

[3] = system: Hela cells with reduced SMN by RNAi; test: SMN localization in HeLa cells with reduced SMN by RNAi (shRNA targeting SMN); assay type: cell-based; settings: vs cells expressing non-targeting shRNA; 10 μM CHX 6 hours (FIG. 7)
Method: as §3, with “The cells were also stained with DAPI to allow definition of the nucleus in each cell. Digital images were acquired with an automated microscopy and analysis system (IN Cell Analyzer 1000, GE Healthcare).” left out

HeLa cells [4] = test: Cell viability / toxicity of treated cells; settings: overnight treatment with 10 μM CHX

C[C@@H]1C[C@@H]([C@H](O)CC2CC(=O)NC(=O)C2)C(=O)[C@@H](C)C1 [cycloheximide]
relation of nuclear accumulation of SMN to inhibition of protein synthesis (HeLa PV cells): proportional to the extent of inhibition of protein synthesis
concentration dependence of SMN redistribution from the cytoplasm to the nucleus (HeLa PV cells; 0.1-40 μM (FIG. 3a, b)): concentration-dependent
treatment time after which the effect on SMN redistribution was evident (HeLa PV cells; HeLa PV cells, 10 μM CHX (FIG. 3a)): 2 h
redistribution of SMN from the cytoplasm to the nucleus (nuclear accumulation of SMN) (HeLa PV cells): most striking accumulation of SMN in the nucleus
SMN remaining in the cytoplasm (HeLa PV cells; after 8 or more hours of treatment): little SMN detected in the cytoplasm
reversibility of SMN nuclear accumulation (HeLa PV cells; cells washed and placed in fresh medium devoid of cycloheximide): reversible
SMN localization after overnight treatment (HeLa PV cells; overnight treatment with 10 μM CHX): all of the SMN was localized to the nucleus
nuclear accumulation of SMN complex components (Gemins) (HeLa cells [1]; 6 hours 10 μM CHX (FIG. 4)): causes most of the components of the SMN complex to accumulate in the nucleus
localization of hnRNP A1, PABP, FXR1 and snRNPs (HeLa cells [2]): not significantly affected
SMN nuclear accumulation in cells with reduced SMN [3]: showed a similar effect
cell viability (HeLa cells [4]): no reduction in cell viability

CC(/C=C/C(=O)NO)=C\[C@@H](C)C(=O)c1ccc(N(C)C)cc1 [trichostatin A]
nuclear translocation of SMN at longer times (HeLa PV cells): caused the same effect as protein synthesis inhibitors

CC[C@H]1CN2CCc3cc(OC)c(OC)cc3[C@@H]2C[C@@H]1C[C@H]1NCCc2cc(OC)c(OC)cc21 [emetine]
SMN localization (FIG. 6b) (HeLa PV cells; 10 μM): nuclear accumulation
redistribution of SMN from the cytoplasm to the nucleus (nuclear accumulation of SMN) (HeLa PV cells): showed the same effect as cycloheximide

COc1ccc(C[C@H](N)C(=O)N[C@H]2[C@@H](O)[C@H](n3cnc4c(N(C)C)ncnc43)O[C@@H]2CO)cc1 [puromycin]
SMN localization (FIG. 6b) (HeLa PV cells; 10 μM): nuclear accumulation
redistribution of SMN from the cytoplasm to the nucleus (nuclear accumulation of SMN) (HeLa PV cells): showed the same effect as cycloheximide

CCCC(CCC)C(=O)O [valproic acid]
concentration dependence of nuclear localization of SMN (HeLa PV cells; 2-10 mM VPA (FIG. 5b)): clear concentration dependence effect
nuclear translocation of SMN at longer times (HeLa PV cells): caused the same effect as protein synthesis inhibitors
localization of Gemin3 and Gemin5 (HeLa cells [1]; 24 hour treatment, 10 mM VPA (FIG. 5c)): remain predominantly cytoplasmic

O=C(CCCCCN1C(=O)c2cccc3cccc(c23)C1=O)NO [scriptaid]
nuclear translocation of SMN at longer times (HeLa PV cells): caused the same effect as protein synthesis inhibitors

C/C=C(/C)C(=O)O[C@H]1C(C)=C2[C@H]([C@@H]1OC(=O)CCCCCCC)[C@@](C)(OC(C)=O)C[C@H](OC(=O)CCC)[C@@]1(O)[C@H]2OC(=O)[C@@]1(C)O [thapsigargin]
SMN localization (FIG. 6b) (HeLa PV cells; 10 μM): nuclear accumulation
completeness of SMN nuclear accumulation compared with CHX (HeLa PV cells): not as complete as that seen after treatment with high levels of CHX
redistribution of SMN from the cytoplasm to the nucleus (nuclear accumulation of SMN) (HeLa PV cells): caused SMN to accumulate in the nucleus

tunicamycin
SMN localization (FIG. 6b) (HeLa PV cells; 10 μg/ml): nuclear accumulation
completeness of SMN nuclear accumulation compared with CHX (HeLa PV cells): not as complete as that seen after treatment with high levels of CHX
redistribution of SMN from the cytoplasm to the nucleus (nuclear accumulation of SMN) (HeLa PV cells): caused SMN to accumulate in the nucleus

CCOC(=O)CN1C(=O)CC(C[C@@H](O)[C@@H]2C[C@@H](C)C[C@H](C)C2=O)CC1=O [cycloheximide-N-ethylethanoate]
redistribution of SMN from the cytoplasm to the nucleus (nuclear accumulation of SMN) (HeLa PV cells): did not show any effect
